Consider 71 compounds from PubChem BioAssay AID608 (Sanford-Burnham Center for Chemical Genomics, 2007).

Activity calls are given as the source filed them. No rule for the calls is given here.

In general, Kd refers to the constant that tells how readily two partners part at equilibrium.

Sequence of Peptidyl-prolyl cis-trans isomerase FKBP1A (Homo sapiens) (P62942 whole entry, looked up): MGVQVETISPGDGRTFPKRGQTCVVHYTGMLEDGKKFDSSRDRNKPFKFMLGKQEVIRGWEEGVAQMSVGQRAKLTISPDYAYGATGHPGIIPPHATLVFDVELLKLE

The assay has as its target Peptidyl-prolyl cis-trans isomerase FKBP1A (Homo sapiens) (UniProt P62942). The experiment in a line: FKBP12 binders, biophysical, NMR detection (AID 608). To be noted: NMR binding, purified FKBP12.
`O=C(O)c1ccc(NCc2cccnc2)cc1`: the Kd is > 4 mM (inactive).

For `CC(=O)Nc1cc(C(F)(F)F)ccc1N1CCOCC1`, the Kd is > 4 mM (inactive).

Regarding `O=c1c(Cl)c(NCCO)ncn1-c1ccccc1`, the Kd is > 4 mM (inactive).

Consider `O=C(Nc1cnccn1)c1cccs1`, for which the Kd was > 4 mM (inactive).

As to `O=C(Oc1ccc(-c2nnco2)cc1)N1CCOCC1`, the Kd was > 4 mM (inactive).

As for `Cc1cc(OCC(=O)N2CCOCC2)ccc1NC(=O)OCc1ccccc1`, the Kd was > 4 mM (inactive).

For `CCNC(CC(=O)Nc1ccc(O)cc1)C(=O)O` (stereo unspecified), the Kd is > 4 mM (inactive).

With `O=S1(=O)C=CC(Nc2ccccc2)C1` (stereo unspecified), the Kd was > 4 mM (inactive).

As for `CC1(C)Cn2c(nnc2-c2ccccc2)S1`, the Kd is > 4 mM (inactive).

`Cc1nc2c(n1O)CCc1c-2no[n+]1[O-]`: the Kd is > 4 mM (inactive).

For the compound `Cc1nc2ccccc2c(=O)n1/N=C/c1ccncc1`, the Kd is > 4 mM (inactive).

Consider `Cc1cc(C)c(-c2cc(C(F)(F)F)no2)c(=O)[nH]1`, for which the Kd is > 4 mM (inactive).

Turning to `Cc1ccc(-n2ncc(C#N)c2/N=C/N(C)C)cc1`, the Kd was > 4 mM (inactive).

Take `O=S(=O)(O)c1nc2ccccc2[nH]1`: the Kd is > 4 mM (inactive).

For `COc1ccccc1NC(=O)/C=N/O`, the Kd is > 4 mM (inactive).

On to `CC(=O)OCC(OC(C)=O)C(OC(C)=O)C(OC(C)=O)C(OC(C)=O)C(COC(C)=O)OC(C)=O` (stereo unspecified), for which the Kd was > 4 mM (inactive).

For `O=C(/C=C/c1ccccc1)c1ccc(O)cc1`, the Kd was > 4 mM (inactive).

Consider `Cc1nc(-c2ccc(C(=O)N3CCOCC3)cc2)cs1`, for which the Kd is > 4 mM (inactive).

As to `CC1=NNC(=O)C1CCc1ccncc1` (stereo unspecified), the Kd was > 4 mM (inactive).

Consider `CS/C(N)=C\C(C)=O`, for which the Kd is > 4 mM (inactive).

As to `NC1CSCC1O` (stereo unspecified), the Kd was > 4 mM (inactive).

Consider `NCc1ccc(-n2cccn2)cc1`, for which the Kd was > 4 mM (inactive).

As for `C=CCc1ccc(O)c(OC)c1`, the Kd was > 4 mM (inactive).

For the compound `O=C1c2ccncc2C(=O)N1CO`, the Kd was > 4 mM (inactive).

Take `Cn1c(O)c(/C=C2\C=CC=N2)c(=O)[nH]c1=S`: the Kd was > 4 mM (inactive).

On to `COC(=O)c1ccc(Cl)c(NC(C)=O)c1`, for which the Kd is > 4 mM (inactive).

As to `Cc1cc(O)c(C=O)c(O)c1C(=O)O`, the Kd is > 4 mM (inactive).

Turning to `Cc1cc([N+](=O)[O-])cc[n+]1[O-]`, the Kd was > 4 mM (inactive).

Turning to `Cc1nnc(Nc2cccnc2)[nH]c1=O`, the Kd is > 4 mM (inactive).

Consider `CC1Cc2nc(SCC(N)=O)n(C)c(=O)c2S1` (stereo unspecified), for which the Kd was > 4 mM (inactive).

Take `COc1ccccc1NC(=O)c1cc[n+]([O-])cc1`: the Kd was > 4 mM (inactive).

As for `Cc1noc(C)c1C(=O)N1CCc2ccccc21`, the Kd was > 4 mM (inactive).

In the case of `CC1(C)O[C@H]2[C@H](O)C[C@](O)(C(N)=O)C[C@H]2O1`, the Kd was > 4 mM (inactive).

Consider `NC(=O)c1ccc(N2C(=O)C=CC2=O)cc1Cl`, for which the Kd is > 4 mM (inactive).

With `NC(=O)CC1Nc2cccc3cccc(c23)NC1=O` (stereo unspecified), the Kd was > 4 mM (inactive).

Consider `Nc1ccc(S(=O)(=O)Nc2nccs2)cc1`, for which the Kd is > 4 mM (inactive).

For the compound `COc1cc(OC)c(-c2nc3cnccc3n2C)cc1OC`, the Kd is > 4 mM (inactive).

`COc1ccc([C@@H]2CC(=O)c3c(O)cc(O)cc3O2)cc1O`: the Kd was > 4 mM (inactive).

Take `NC(=O)NC1NC(=O)NC1=O` (stereo unspecified): the Kd is > 4 mM (inactive).

With `Cc1nc2ccc(F)cc2cc1C(=O)NCc1ccco1`, the Kd was > 4 mM (inactive).

On to `CN1C(=O)c2ccc(C(=O)NCc3ccccc3)cc2C1=O`, for which the Kd was > 4 mM (inactive).

With `O=S(=O)(Nc1cccc2cn[nH]c12)c1ccc(F)cc1`, the Kd is > 4 mM (inactive).

Turning to `Cc1cc(OCC(=O)N2CC(C)OC(C)C2)cc(C)c1Cl` (stereo unspecified), the Kd is > 4 mM (inactive).

In the case of `O=[N+]([O-])c1cccc(CN2CCC(O)CC2)c1`, the Kd was > 4 mM (inactive).

Regarding `COCC(=O)Nc1ccc(C)c(Cl)c1`, the Kd was > 4 mM (inactive).

`COc1ccc(C)cc1S(=O)(=O)N1CCCCC1`: the Kd was > 4 mM (inactive).

For `O=C(O)c1coc2c1C(=O)CCC2`, the Kd was > 4 mM (inactive).

`Cc1ccccc1C(=O)Nc1cccc(N)c1`: the Kd is > 4 mM (inactive).

As to `CN1CCC(N2CCN(C)CC2)CC1`, the Kd was > 4 mM (inactive).

With `c1ccc(-c2csc(Nc3cccnc3)n2)nc1`, the Kd is > 4 mM (inactive).

For the compound `COC(=O)C[C@H]1C2(C)CC34OC5(C)O[C@@]6([C@H](OC)C(OC(=O)C(C)C)[C@]7(C)C(/C(=C(/OC)C(C)C)C(=O)O[C@H]7c7ccoc7)[C@@]6(O5)[C@H](OC)[C@@]3(OC)C2OC(C)=O)[C@]14C` (stereo partly specified), the Kd was > 4 mM (inactive).

Regarding `O=C(Nc1ccc(Cl)cc1)N1CCCC1`, the Kd result was “inactive”.

Turning to `O=c1[nH]cc(N=Cc2ccc(F)cc2)c(=O)[nH]1`, the Kd was > 4 mM (inactive).

Consider `O=C(Nc1cnccn1)c1ccncc1`, for which the Kd was > 4 mM (inactive).

With `CC(C)c1ccc2c(c1O)CC[C@H]1C3=C(CC[C@]21C)C(=O)OC3`, the Kd is > 4 mM (inactive).

Take `CCc1ccc2oc(-c3cc(N)cc(C)c3O)nc2c1`: the Kd was > 4 mM (inactive).

Regarding `CCC(C)C(=O)O[C@@H]1C[C@@]2(C)[C@H](c3ccoc3)OC(=O)CC23OC2(C)O[C@]14[C@]1(C)[C@@H](CC(=O)OC)C5(C)CC1(O)[C@](O)(C5OC(=O)C1(C)OC1C)[C@@H](OC(C)=O)[C@]34O2` (stereo partly specified), the Kd was > 4 mM (inactive).

For `COc1ccc(-c2nc(N)n(C(C)=O)n2)cc1`, the Kd was > 4 mM (inactive).

With `C/C=C(/C)C(=O)O[C@H]1CC[C@@]2(C)[C@@H]3CC[C@H]4[C@]5(O)C[C@H](O)[C@@]6(O)[C@@H](CN7C[C@@H](C)CC[C@H]7[C@@]6(C)O)[C@]5(O)C[C@@]42OC13O`, the Kd is > 4 mM (inactive).

As to `Cn1nc(C(=O)NC2CCCCC2)c2ccccc2c1=O`, the Kd was > 4 mM (inactive).

For `COc1ccccc1NC(=O)C1CCC(=O)N1` (stereo unspecified), the Kd was > 4 mM (inactive).

As to `O=c1c(O)c(-c2ccc(O)cc2O)oc2cc(O)cc(O)c12`, the Kd was > 4 mM (inactive).

As for `Cc1cccc(NC(=O)NC(N)=O)c1`, the Kd is > 4 mM (inactive).

For `Nc1ccc2c(c1)S(=O)(=O)C=C2`, the Kd is > 4 mM (inactive).

`COc1ccc2c(C)cc(=O)oc2c1`: the Kd is > 4 mM (inactive).

Take `O=C(c1ccncc1)N1CCN(C(=O)c2ccncc2)CC1`: the Kd was > 4 mM (inactive).

`Cc1cc(C(=O)N2CCOCC2)c(C)o1`: the Kd was > 4 mM (inactive).

As for `Cc1noc(C)c1C(=O)Nc1ccc2c(c1)CCC2`, the Kd is > 4 mM (inactive).

As for `O=C(O)CSc1nnc(-c2cccs2)o1`, the Kd is > 4 mM (inactive).

For `NCCc1cnc[nH]1`, the Kd was > 4 mM (inactive).

Consider `Cn1c(CO)nc2cc(N)ccc21`, for which the Kd is > 4 mM (inactive).
